# Results as given in patent publication EP3516395B1, “METHOD FOR DETERMINING AFFINITY BETWEEN LIGANDS AND A TARGET” (Plant Advanced Technologies Pat, priority 2016, dated 2018).
# Where two headings read alike, the source gives them in different places.
# Tests used:
# [1] = system: collagénase issue de Clostridium histolyticum; test: Relative affinity by competitive binding, ultrafiltration and LC-MS (Examples 2, 3, 6); settings: for Affinités relatives: reference 3,5-DCQ
# Experimental: Une solution de travail de collagénase issue de Clostridium histolyticum à 6.25 mg/mL est préparée en dissolvant de la poudre de l'enzyme lyophilisée dans 50 mM d'acétate d'ammonium, avec un pH de 7.5, ajusté par une solution aqueuse d'ammoniac. L'échantillon est préparé en utilisant l'un des solvants suivants : des glycols, le DMSO (diméthylsulfoxide), l'éthanol, pur ou en solution dans l'eau. La concentration dans l'échantillon des ligands initiaux est équimolaire et doit être dans la gamme de 0,75 à 1 mM. Les ligands choisis étaient des isomères d'acide 3,5-dicaféoylquinique (noté 3,5-DCQ par la suite) et des isomères d'esters d'acide 3,5-dicaféoylquinique et de dipropylène glycol (noté 3,5-DCQ-DPG par la suite). Un échantillon de référence est préparé également en diluant l'échantillon de 10 à 20 fois dans une solution d'eau et d'un quart de volume d'acétonitrile.
# • 1. Étape de préconditionnement - Des puits à membrane filtrante sont pré-conditionnées avec un volume de 500 µl d'acétate d'ammonium 50mM pH 7,5 qui est passé à travers la membrane avec une centrifugation de 14000 g pendant 60 secondes. • 2. Étape de liaison - Un volume de 75 µl de la solution de collagénase à une concentration de 6,25mg/ml dans 50 mM d'acétate d'ammonium, avec un pH de 7.5 est mélangé avec 10 µl de l'échantillon pendant 10 min dans un tube d'Eppendorf en plastique. Dans ce mélange, on a 55,79 µM de collagénase et une gamme de 93,75 µM à 125 µM de ligands (3,5-DCQ et 3,5-DCQ-DPG) soit un ratio ligands/cible entre […]. • 3. Étape de lavage - Le mélange de l'enzyme et de l'échantillon est déposé dans un puits préconditionné à l'étape de préconditionnement, puis centrifugé à 14000 g jusqu'à l'élimination de l'essentiel du solvant. Les complexes enzyme-ligands restent à la surface de la membrane du filtre puis sont à nouveau suspendu dans un volume de 100 µL de la même solution à 50 mM d'acétate d'ammonium, avec un pH de 7.5 et centrifugé à 14000 g jusqu'à élimination du solvant. Cette procédure est répétée trois fois et élimine tous les composés qui ne sont pas liés à l'enzyme. • 4. Étape de séparation - Les complexes enzyme-ligands retenus dans le filtre sont à nouveau suspendus dans un volume de 10 µL d'eau ultra-pure, puis sont mélangés avec un volume de 40 µL d'acétonitrile pour dénaturer et précipiter l'enzyme et, en même temps libérer les ligands. Le mélange est centrifugé à 21000 g pendant 10 min pour séparer le précipité du surnageant. • 5. Étape d'analyse - Ledit surnageant formant la solution traitée est analysé par chromatographie en phase liquide couplée à une spectrométrie de masse. L'échantillon de référence est analysé également de la même manière, en utilisant les mêmes conditions d'analyse. Les affinités relatives sont calculées selon la méthode décrite ci-après. Le résultat est sur la première ligne du tableau 3.
# Plusieurs échantillons sont préparés comme dans l'exemple 2, mais avec une proportion entre les ligands 3,5-DCQ et 3,5-DCQ-DPG non plus équimolaire mais déséquilibrée, comme indiqué dans le tableau 3 ci-après.
# L'analyse est conduite de la même manière que dans l'exemple 2. Les résultats sont de la deuxième à la quatrième ligne du tableau 3.
# La préparation des échantillons (ligands et cible) et leur analyse ont été réalisés selon l'exemple 2. Les effets des variations du rapport de ligands/cible ont été évalués.
# Une analyse par chromatographie en phase liquide fournit un chromatogramme tel que montré par les figures 1 et 2. Le chromatogramme représente une intensité de signal en fonction du temps de rétention dans une colonne. Le signal présente différents pics d'intensité variable. Chaque pic est associé à l'un des ligands présent dans l'échantillon et la solution traitée. • 1. Normalisation de l'intensité du signal analytique pour les ligands dans l'échantillon de référence. […]
# [2] = system: collagénase issue de Clostridium histolyticum; test: Collagenase inhibition with synthetic substrate FALGPA (Example 4); type: biochemical; settings: for activité de la collagénase: ligand 5µM, FALGPA 1 mM, tris-HCl buffer alone = 100%
# Experimental: L'activité inhibitrice de la collagénase issue de Clostridium histolyticum a été expérimentée en mettant en présence de la collagénase et du substrat synthétique FALGPA (N-(3-[2-Furyl]acryloyl)-Leu-Gly-Pro-Ala) préparé à une concentration de 1 mM, du tampon tris-HCI seul pour établir une référence, et en présence respectivement de tampon tris-HCI additionné de 3,5-DCQ et 3,5-DCQ-DPG en concentration à 5µM. La référence montrant une activité de la collagénase de 100%, on a mesuré une activité de la collagénase de 94% en présence de 3,5-DCQ et une activité de 50% en présence de 3,5-DCQ-DPG. A cette concentration, la collagénase de Clostridium histolyticum est inhibée de manière significative par le 3,5-DCQ-DPG, tandis qu'elle ne l'est que très peu par le 3,5-DCQ.
# [3] = molecular target: collagénase issue de Clostridium histolyticum; settings: J. Nat. Prod. 2005, 68, 794-796; cited from earlier work
# tyrosinase de champignon = test: Relative affinity by competitive binding, ultrafiltration and UPLC-MS/UV (Example 1); settings: equimolar ligands; for Facteur de normalisation, solution traitée: NFTB, peak area UV 270 nm relative to reference ligand moracénine B; for Affinités relatives: RA = NFTB/NFeq, reference ligand moracénine B
# Experimental: Une solution de travail de tyrosinase de champignon à 1.25 mg/mL est préparée en dissolvant de la poudre de l'enzyme lyophilisée dans 50 mM d'acétate d'ammonium, avec un pH de 7.0. L'échantillon est préparé en utilisant l'un des solvants suivants : des glycols, DMSO (diméthylsulfoxide), l'éthanol, pur ou en solution dans l'eau. La concentration dans l'échantillon des ligands initiaux est équimolaire et doit être dans la gamme de 0,75 à 1 mM. Les ligands choisis étaient des inhibiteurs connus de la tyrosinase isolés depuis des racines de murier noir (Morus nigra) : la moracénine A, moracénine B et la kuwanone C. Un échantillon de référence est préparé également en diluant l'échantillon de 10 à 20 fois dans une solution d'eau et d'un quart de volume d'acétonitrile.
# • 1. Étape de préconditionnement - Des puits à membrane filtrante sont pré-conditionnées avec un volume de 500 µl d'une solution à 85% d'acétate d'ammonium et 15% d'éthanol qui est passé à travers la membrane avec une centrifugation de 14000 g pendant 60 secondes. • 2. Étape de liaison - La préparation de tyrosinase (1.25 mg/mL, 75 µL) est mélangée avec 5 µl de l'échantillon dans un tube d'Eppendorf en plastique, puis est incubée pendant 5 min. Dans ce mélange, on a 9,16 µM de tyrosinase et une gamme de 46,88 µM à 62,5 µM de ligands (moracénine A, moracénine B et kuwanone C) soit un ratio ligands/cible allant de 5,12 à 6,83. • 3. Étape de lavage - le mélange de l'enzyme et de l'échantillon est déposé dans un puits préconditionné à l'étape de préconditionnement, puis centrifugé à 14000 g jusqu'à l'élimination de l'essentiel du solvant. Les complexes enzyme-ligands restent à la surface de la membrane du filtre puis sont à nouveau suspendu dans un volume de 100 µL de la même solution à 85% d'acétate d'ammonium et 15% d'éthanol et centrifugé à 14000 g jusqu'à élimination du solvant. Cette procédure est répétée trois fois et élimine tous les composés qui ne sont pas liés à l'enzyme. • 4. Étape de séparation - Les complexes enzyme-ligands retenus dans le filtre sont à nouveau suspendus dans un volume de 10 µL d'eau ultra-pure, puis sont mélangés avec un volume de 40 µL d'acétonitrile pour dénaturer et précipiter l'enzyme et, en même temps libérer les ligands. Le mélange est centrifugé à 21000 g pendant 10 min pour séparer le précipité du surnageant. • 5. Étape d'analyse - Ledit surnageant formant la solution traitée est analysé par chromatographie en phase liquide couplée à une spectrométrie de masse, connue également par l'acronyme UPLC-MS. L'échantillon de référence est analysé également de la même manière, en utilisant les mêmes conditions d'analyse. Les affinités relatives sont calculées selon la méthode décrite ci-après. De préférence, l'échantillon de référence et la solution traitée sont analysés séquentiellement pour éliminer des dispersions dues aux réglages de l'appareillage.
# Une analyse par chromatographie en phase liquide fournit un chromatogramme tel que montré par les figures 1 et 2. Le chromatogramme représente une intensité de signal en fonction du temps de rétention dans une colonne. Le signal présente différents pics d'intensité variable. Chaque pic est associé à l'un des ligands présent dans l'échantillon et la solution traitée. • 1. Normalisation de l'intensité du signal analytique pour les ligands dans l'échantillon de référence. Pour chaque chaque ligand CEi dans l'échantillon de référence, on établit des facteurs de normalisation NFeq dudit ligand CEi par comparaison au ligand de référence REF, selon l'équation suivante : NFeq,CEi = (ISeq,CEi)/(ISeq,REF) [formula] où : • NF est un facteur de normalisation; • ISeq,CEi est l'intensité du signal analytique pour le ligand CEi dans l'échantillon; • ISeq,REF est l'intensité du signal analytique pour le ligand de référence REF dans l'échantillon. L'intensité peut être choisie parmi l'aire du pic ou la valeur maximale du pic. Le facteur de normalisation du ligand de référence vaut toujours 1. • 2. […]
# [4] = ex. 2, molar ratio 3,5-DCQ-DPG/3,5-DCQ 1/1 (équimolaire)
# [5] = ex. 3.1, molar ratio 3,5-DCQ-DPG/3,5-DCQ 0,5/1
# [6] = ex. 3.2, molar ratio 3,5-DCQ-DPG/3,5-DCQ 0,2/1
# [7] = ex. 3.3, molar ratio 3,5-DCQ-DPG/3,5-DCQ 3/1
"Facteur de normalisation, solution traitée (tyrosinase de champignon)",Affinités relatives (tyrosinase de champignon),Compound,"Facteur de normalisation, solution traitée [1, 4]","Affinités relatives [1, 4]","Facteur de normalisation, solution traitée [1, 5]","Affinités relatives [1, 5]","Facteur de normalisation, solution traitée [1, 6]","Affinités relatives [1, 6]","Facteur de normalisation, solution traitée [1, 7]","Affinités relatives [1, 7]",activité de la collagénase [2] [%],IC50 [3] [µM],"(RADCQ−DPG^Mx)/(RADCQ−DPG^Mref) ([1]; sample M_1: collagénase 32,1 µM, DCQ/DCQ-DPG 75/75 µM, ligands/collagénase 2,33, competition)","(RADCQ−DPG^Mx)/(RADCQ−DPG^Mref) ([1]; sample M_2: collagénase 32,1 µM, DCQ/DCQ-DPG 50/50 µM, ligands/collagénase 1,56, competition)","(RADCQ−DPG^Mx)/(RADCQ−DPG^Mref) ([1]; sample M_3: collagénase 32,1 µM, DCQ/DCQ-DPG 15/15 µM, ligands/collagénase 0,47, no competition)","IC50 ([2]; approximate, from Example 4 (50% activity at 5µM)) [µM]"
–,–,"O=C(/C=C/c1ccc(O)c(O)c1)OC1CC(O)(C(=O)O)CC(OC(=O)/C=C/c2ccc(O)c(O)c2)C1O (stereo not drawn) [3,5-DCQ, acide 3,5-dicaféoylquinique]","1,00","1,00","1,00","1,00","1,00","1,00","1,00","1,00",94,23.6,–,–,–,–
"0,78","1,07",CC(C)=CCc1c(-c2ccc(O)cc2O)oc2c(CC=C(C)C)c(O)cc(O)c2c1=O [kuwanone C],–,–,–,–,–,–,–,–,–,–,–,–,–,–
"1,00","1,00",moracénine B,–,–,–,–,–,–,–,–,–,–,–,–,–,–
–,–,"esters d'acide 3,5-dicaféoylquinique et de dipropylène glycol [3,5-DCQ-DPG]","6,03","5,21","2,49","4,05","0,81","3,01","13,64","4,09",50,–,"0,96","0,71","0,47",~5
